# Measured values published in patent US20070122377A1, “Compositions and methods of treatment” (priority 2003, published 2007).
# B1: GM-CSF: Murine Granulocyte macrophage colony stimulating factor from Peprotech, catalog number 315-03 (protein, UniProt P01587 18-141, looked up)
# Granulocyte-macrophage …: APTRSPITVTRPWKHVEAIKEALNLLDDMPVTLNEEVEVVSNEFSFKKLTCVQTRLKIFEQGLRGNFTKLKGALNMTASYYQTYCPPTPETDCETQVTTYADFIDSLKTFLTDIPFECKKPGQK
# Key:
# type IV PDE = conditions: cited from earlier work; for IC50: type IV PDE selective inhibitor
# PDE = conditions: non-specific PDE inhibitor; cited from earlier work
# U937 cells [1] = assay: IL-10 and TNFα mRNA in U937 cells after differentiating agents (Example 9, FIG. 13); type: cell-based, human
# Experimental: U937 (human monocyte cell line) cells were grown in RPMI (PAA Laboratories) medium with 10% fetal calf serum added (PAA Laboratories). Cells were treated with prostaglandin E2 at 10^−6 Molar, Rolipram 10^−6 Molar, Forskolin 50×10^−6 Molar with or without GMCSF at 5 ng/ml for 48 hours. Cells were pelleted and the mRNA was extracted with Tri reagent (Sigma, Poole, UK). Total RNA was obtained by addition of chloroform and subsequent isopropanol precipitation. RNA was reverse transcribed with reverse transcriptase (Applied Biosystems) and random hexamers (Applied Biosystems). Probes and primers for amplification and detection of IL-10 were designed using Primer Express (Applied Biosystems) and are as follows:
# As for Example 4 but MRNA for TNFα is also included.
# Data is shown as the ratio of IL-10 mRNA/TNFα mRNA. P=PMA=Phorbol myristoyl acetate; F=Fsk=Forskolin g=GMCSF, C=vehicle control.
# U937 cells [2] = assay: IL-10 ELISA in U937 cells, prostaglandins in presence and absence of rolipram (Examples 5 and 6, FIGS. 7 and 8); type: cell-based, human
# Experimental: U 937 cells were grown in RPP (PAA Laboratories) medium with 10% fetal calf serum added (PAA Laboratories). 2×10^6 cells per flask were treated with prostaglandin E2 at 10^−6 Molar or with Rolipram (4×10^−6) for 24 hours. Medium was removed at 20 hours and analysed by ELISA. A capture antibody (Pharmingen) was coated onto 96 well plates and culture medium was added each well. A standard curve was created with recombinant IL-10 protein. After incubation and washing, a biotin labelled monoclonal antibody (Pharmingen) was added and following incubation and washing, peroxidase labelled streptavidin was added. After washing a tetramethyl benzidine substrate was added and colour developed in proportion to IL-10 in the original sample/standard. Colour was read using a plate photometer (Labsystems, Multiskan). Mean concentrations (N=3) in controls with no lipopolysaccharide (LPS) were 38.2 pg/ml and in the presence of LPS (100 nM) they were 43.9 […].
# The effect of PGE1, PGE2, 19 hydroxy PGE1 and 19 hydroxy PGE2 on the stimulation of IL-10 in the presence and absence of rolipram was investigated as described above in Example 5. IL-10 levels were measured using an ELISA assay (R&D Ltd, Oxford). Measurement was performed according to the manufacturer's instructions.
# U937 cells [3] = assay: phosphodiesterase IV-b mRNA in U937 cells (Example 7, FIG. 9); type: cell-based, human; conditions: four hours of incubation; PGE 1×10^-6, 19-hydroxy PGE2 5×10^-6
# Experimental: After the incubation (20 hours), cells were pelleted and the mRNA was extracted with Tri-reagent (Sigma, Poole, UK). Total RNA was obtained by addition of chloroform and subsequent isopropanol precipitation. RNA was reverse transcribed with reverse transcriptase (Applied Biosystems) and random hexamers (Applied Biosystems). Probes and primers for IL-10 and IL-12 (p35) were designed using Primer Express (Applied Biosystems) and were as follows:
# Template was amplified in a Taqman 7700 machine for 40 cycles using FAM/TAMRA dyes on the probe. The Applied Biosystems kit was used to amplify and detect ribosomal (18S) RNA (using VIC/TAMRA dyes) as an internal control in the same reaction tube. After 40 cycles the Ct (related to cycle number at which signal appears) for the FAM and the 18S (VIC) were recorded and […] relative quantitation was achieved using the formula 2^−ΔΔCt where Δ refers to the difference between the FAM and VIC signal related to an standard comparator included in each run.
# The mRNA for phosphodiesterase IV-b was measured as described in Example 5 above. mRNA was extracted after four hours of incubation. The concentration of the PGE was 1×10^−6 and that of the 19-hydroxy PGE2 was 5×10^−6. The following primers and Taqman probe were used for quantitation of PDE IV b mRNA.
# U937 cells [4] = assay: Release of IL-10 protein from U937 monocytes in response to PGE and GMCSF (Example 3, FIG. 4); type: cell-based, human
# Experimental: Cells were treated for 4 hours with the agents indicated below the graph, washed to remove the treatment and incubated for a further 20 hours before the medium was assayed for IL-10. PGE refers to prostaglandin E2, and GM refers to GMCSF.
# U937 cells were grown in RPMI (PAA Laboratories) medium with 10% foetal calf serum (PAA Laboratories) added.
# [5] = cited from earlier work
molecule,measurement,setting,value
"CCCCOc1cc(CC2CNC(=O)N2)ccc1OC (stereo not shown) [Ro-20-1724, 4-[3-butoxy-4-methoxybenzyl]-2-imidazolidinone]",IC50,type IV PDE,2000 nM
"CC(C)Cn1c(=O)n(C)c(=O)c2[nH]cnc21 [IBMX, 3-isobutyl-1-methylxanthine]",IC50,PDE,2000 to 50000 nM
Cn1c(=O)c2[nH]cnc2n(C)c1=O [theophylline],times less effective than rolipram,type IV PDE; non-selective inhibitor compared with type IV selective rolipram,30 times
"CCCCCCCCCCCCCC(=O)O[C@@H]1[C@@H](C)[C@@]2(O)[C@@H](C=C(CO)C[C@]3(O)C(=O)C(C)=C[C@@H]23)[C@@H]2C(C)(C)[C@]12OC(C)=O [PMA, Phorbol myristoyl acetate]",IL-10 mRNA,U937 cells [1]; PMA 2×10^-7 M as differentiating agent,increased
same,TNFα mRNA,U937 cells [1]; differentiation with the agent,increased
19-hydroxy PGE2,stimulation of IL-10 in the presence of a PDE inhibitor,U937 cells [2],increased strikingly
same,PDE activity / PDE message (phosphodiesterase IV-b mRNA),U937 cells [3],increase
same,stimulation of IL-10 in the presence of GMCSF,U937 cells [4],increased strikingly
"COc1ccc(C2CNC(=O)C2)cc1OC1CCCC1 (stereo not shown) [rolipram, 4-[3-cyclopentyloxy-4-methoxyphenyl]-2-pyrrolidinone]",IC50,type IV PDE,800 nM
"CCCCC[C@H](O)/C=C/[C@H]1[C@H](O)CC(=O)[C@@H]1C/C=C\CCCC(=O)O [PGE, prostaglandin E2]",stimulation of IL-10 in the presence of a PDE inhibitor,U937 cells [2],increased strikingly
same,PDE activity / PDE message (phosphodiesterase IV-b mRNA),U937 cells [3],increase
same,stimulation of IL-10 in the presence of GMCSF,U937 cells [4],increased strikingly
B1,solubility in aqueous solution,[5],Freely soluble
